According to publication PMC10770013, “Antiproliferative polyketides from fungus Xylaria cf. Longipes SWUF08-81 in different culture media” (Natural Products and Bioprospecting, 2024):
In brackets after ≈: the same amount, converted by molar mass. Entries after “also recorded” stand apart in the source; their conditions may differ.

Tests used:
HT29 = assay: MTT assay, antiproliferative activity against HT29; assay type: cell-based, human; conditions: for IC50: Homo sapiens, HT-29; for toxicity in words, HT29: MTT assay
Experimental: (§1) The antiproliferative activity was evaluated by MTT (3-(4,5-dimethylthiazol-2-yl)-2,5-diphenyl tetrazolium bromide) assay. Four cancer cell lines; human cervical carcinoma (HeLa), human colon carcinoma (HT29 and HCT116) and human breast carcinoma (MCF-7), along with African green monkey kidney cells (Vero cells) were seeded in 96-well plates (8000 cells/well) and cultured for 24 h, followed by being treated with the selected compounds at 100 µg/mL for 72 h. Following this, 10 μL of MTT reagent (5 mg/mL in phosphate buffer solution (PBS)) was added to each well and further incubated at 37 °C for 2 h. Then, 100 μL of DMSO (dimethyl sulfoxide) was used to dissolve the formazan dye. Finally, the absorbance of the solution was measured using a microplate reader (Bio-Rad Laboratories, Hercules, CA) at wavelengths of 550 and 655 nm. The absorbance at 655 nm was used as a reference wavelength. […] Cisplatin was used as the positive control drug.

MCF-7 = assay: MTT assay, antiproliferative activity against MCF-7; assay type: cell-based, human; conditions: triplicate, mean ± SD; for IC50: Homo sapiens, MCF7, 72 h
Experimental: as §1

HeLa = assay: MTT assay, antiproliferative activity against HeLa; assay type: cell-based, human; conditions: for IC50: Homo sapiens, HeLa; for toxicity in words, HeLa: MTT assay
Experimental: as §1

Vero cells = assay: MTT assay, antiproliferative activity against Vero cells; assay type: cell-based, African green monkey; conditions: Chlorocebus sabaeus, 72 h, triplicate, mean ± SD, normal cells
Experimental: as §1

HCT116 = assay: MTT assay, antiproliferative activity against HCT116; assay type: cell-based, human; conditions: for IC50: Homo sapiens, HCT-116, MTT, 72 h, triplicate, mean ± SD; for toxicity in words, HCT116: MTT assay
Experimental: as §1

[1] = tested on: cancer cell lines (HCT116, HT29, MCF-7 and HeLa); assay: MTT assay, all four cancer cell lines together; assay type: cell-based, human
Experimental: as §1

[2] = tested on: HCT116, HT29, MCF-7, HeLa and Vero cells; assay: MTT assay, all cancer cells and normal cells together; assay type: cell-based
Experimental: as §1

[3] = MTT, 72 h, triplicate, mean ± SD

Structure (SMILES) | Antiproliferative activity, IC50 ± SD, HT29 (HT29; [3]) | Antiproliferative activity, IC50 ± SD, MCF-7 (MCF-7; 72 h) | Antiproliferative activity, IC50 ± SD, HeLa (HeLa; [3]) | IC50 (Vero cells) | IC50 (HCT116) | IC50 (HT29; [3]) | IC50 (MCF-7) | IC50 (HeLa; [3]) | antiproliferative activity in words, all cancer cells [1] | melting point | toxicity in words, HCT116 (HCT116) | toxicity in words, HT29 (HT29) | toxicity in words, HeLa (HeLa) | antiproliferative activity in words, all cancer cells and normal cells ([2]; MTT assay) | IC50 ([2]; range over HCT116, HT29, MCF-7, HeLa and Vero cells, read-out: IC50 range against all cancer cells and normal cells)
N.N.[Cl][Pt][Cl] [Cisplatin, reference compound] | 1.59 ± 0.07 µg/mL | 3.13 ± 0.26 µg/mL | 1.93 ± 0.04 µg/mL | – | – | – | – | – | – | – | – | – | – | – | –
COc1cc2oc3cc(O)cc(O)c3c2c(C)c1O [Compound 1, 1,3,8-trihydroxy-7-methoxy-9-methyldibenzofuran] | – | – | – | 25 ± 0.63 µg/mL (≈ 96.1 µM) | 14.4 ± 0.87 µg/mL (≈ 55.2 µM) | 8.99 ± 1.96 µg/mL (≈ 34.5 µM) | 18.4 ± 0.99 µg/mL (≈ 70.7 µM) | 16.7 ± 0.55 µg/mL (≈ 64.1 µM) | moderate anti-proliferation | – | – | – | – | – | –
COC(=O)c1cc(OC)c(O)c2c1C[C@@H](C)OC2=O [Compound 2, (3R)-7-methoxy-5-methoxycarbonylmellein] | – | – | – | > 100 µg/mL | 92.9 ± 2.7 µg/mL (≈ 349 µM) | 96.4 ± 3.37 µg/mL (≈ 362 µM) | > 100 µg/mL | > 100 µg/mL | – | 135 to 136 °C | – | – | – | – | –
C[C@@H]1Cc2cccc(O)c2C(=O)O1 [Compound 3, (−)-mellein] | – | – | – | > 100 µg/mL | > 100 µg/mL | > 100 µg/mL | > 100 µg/mL | > 100 µg/mL | – | – | – | – | – | – | –
COC(=O)c1ccc(O)c2c1C[C@@H](C)OC2=O [Compound 4, (-)-5-methoxycarbonylmellein] | – | – | – | > 100 µg/mL | > 100 µg/mL | > 100 µg/mL | > 100 µg/mL | > 100 µg/mL | – | – | – | – | – | – | –
C[C@@H]1Cc2c(C(=O)O)ccc(O)c2C(=O)O1 [Compound 5, (−)-5-carboxymellein] | – | – | – | > 100 µg/mL | 54.9 ± 3.35 µg/mL (≈ 247 µM) | 72.6 ± 2 µg/mL (≈ 327 µM) | > 100 µg/mL | 57.8 ± 1.26 µg/mL (≈ 260 µM) | – | – | slightly toxic | slightly toxic | slightly toxic | – | –
COc1cc(O)cc2c1C(=O)O[C@H](C[C@H]1CCC[C@@H](C)O1)C2 [Compound 15, (3S,2′R,6′R)-asperentin-8-O-methylether] | – | – | – | > 100 µg/mL | 45.1 ± 3.65 µg/mL (≈ 147 µM) | 67.6 ± 6.99 µg/mL (≈ 221 µM) | > 100 µg/mL | 92.9 ± 2.7 µg/mL (≈ 303 µM) | – | – | slightly toxic | slightly toxic | slightly toxic | – | –
C[C@H]1CCC[C@H](Cc2cc(O)cc(O)c2)O1 [Compound 17, (2′R,6′S)-5-((-6-methyltetrahydro-2H-pyran-2-yl)methyl)benzene-1,3-diol] | – | – | – | > 100 µg/mL | 17.5 ± 1.29 µg/mL (≈ 78.7 µM) | 19.5 ± 0.77 µg/mL (≈ 87.7 µM) | 50.2 ± 3.85 µg/mL (≈ 226 µM) | 13.5 ± 1.15 µg/mL (≈ 60.9 µM) | moderate anti-proliferation | – | – | – | – | – | –
C[C@H]1CCC[C@H](C[C@H]2Cc3cc(O)cc(O)c3C(=O)O2)O1 [Compound 18, asperentin] | – | – | – | 8.77 ± 0.91 µg/mL (≈ 30 µM) | 2.42 ± 0.2 µg/mL (≈ 8.28 µM) | 4.51 ± 0.13 µg/mL (≈ 15.4 µM) | 10.1 ± 0.52 µg/mL (≈ 34.5 µM) | 2.09 ± 0.16 µg/mL (≈ 7.15 µM) | significantly toxic | – | – | – | – | strong broad spectrum | 2.09 to 10.1 µg/mL (≈ 7.15 to 34.5 µM)
COc1cc(O)cc2c1C(=O)O[C@@H](C[C@H]1CCC[C@H](C)O1)C2 [Compound 19, asperentin-8-O-methylether] | – | – | – | > 100 µg/mL | 66.5 ± 7.68 µg/mL (≈ 217 µM) | > 100 µg/mL | > 100 µg/mL | > 100 µg/mL | – | – | – | – | – | – | –
COc1cc(O)c2c(c1)C[C@H](C[C@H]1CCC[C@H](C)O1)OC2=O [Compound 20, asperentin-6-O-methylether] | – | – | – | > 100 µg/mL | 8.69 ± 0.69 µg/mL (≈ 28.4 µM) | 33.3 ± 4.42 µg/mL (≈ 109 µM) | 11.7 ± 0.82 µg/mL (≈ 38.2 µM) | 4.98 ± 0.4 µg/mL (≈ 16.3 µM) | significantly toxic; also recorded: moderate anti-proliferation | – | – | – | – | – | –
C[C@@H]1O[C@@H](C[C@H]2Cc3cc(O)cc(O)c3C(=O)O2)CC[C@@H]1O [Compound 21, 5′-hydroxyasperentin] | – | – | – | > 100 µg/mL | > 100 µg/mL | > 100 µg/mL | > 100 µg/mL | > 100 µg/mL | – | – | – | – | – | – | –
C[C@H]1C[C@@H](O)C[C@H](C[C@H]2Cc3cc(O)cc(O)c3C(=O)O2)O1 [Compound 22, 4′-hydroxyasperentin] | – | – | – | > 100 µg/mL | > 100 µg/mL | > 100 µg/mL | > 100 µg/mL | > 100 µg/mL | – | – | – | – | – | – | –
